{"source": "patent US20050203575A1", "about": "“Skin microactivation system and method” (Unilever Home & Personal Care USA, Division of Conopco, Inc., priority 2004, published 2005)", "test_system": "cellular retinoic acid binding protein II (CRABP II)", "test": "Clinical trial: CRABP II in human epidermis after topical retinol with or without microneedle treatment (Western blotting)", "assay_type": "in vivo", "conditions": "once a day for four days", "from_the_text": "Ten subjects between the ages of 25 and 50 were recruited into a clinical trial to test the efficacy of microneedles 58 after having given informed consent to a protocol approved by an internal review board. Needles 58 that are acupuncture needles (Seirin, 0.12 mm×30 mm) were fixed in narrow diameter plastic tubes, i.e., positioning collars 60, with adhesive so that needle tips protruded approximately 250 microns beyond the end of positioning collar 60. This arrangement prevented excessive penetration during use. The protocol provided for the application on the skin of the lower back of a vehicle alone or vehicle containing either 0.05% or 0.1% retinol. In vehicle alone sites and 0.05% retinol sites microneedles 58 were applied at a density of 100 strikes per square centimeter. Adhesive rings with an internal area of 1.5 square centimeters were used to define the treatment areas. Microneedle device 10 was held in the operator's hand and lightly impacted on the subject's skin. Aliquots of twenty microliters of treatment solution were applied to the relevant sites immediately after microneedling. Sites were treated once a day for four days. On the fifth day epidermal samples were taken with an abrasive probe and placed in extraction buffer (see above). Samples were analysed with polyacrylamide gel electrophoresis and Western blotting for the presence of cellular retinoic acid binding protein II (CRABP II), a protein considered to be a marker for retinoid activity in skin.", "data": [{"smiles": "CC1=C(/C=C/C(C)=C/C=C/C(C)=C/CO)C(C)(C)CCC1", "note": "[retinol]", "values": [{"measurement": "CRABP II expression in epidermis, microneedle + 0.05% retinol versus 0.05% retinol alone", "setting": "microneedles 100 strikes per square centimeter + 0.05% retinol, P<0.05", "value": "increased CRABP II expression above that seen with 0.05% retinol alone"}, {"measurement": "CRABP II expression elevation, microneedles + 0.05% retinol versus 0.1% retinol alone", "setting": "microneedles 100 strikes per square centimeter + 0.05% retinol, statistically significant", "value": "greater than that associated with the 0.1% retinol alone treatment"}, {"measurement": "CRABP II expression in epidermis", "setting": "vehicle alone, 0.05% or 0.1% retinol on skin of lower back, sampled on fifth day", "value": "dose-dependent increase in CRABP II"}]}]}
